{"source": "patent US4465672A", "about": "“Stable S-adenosylmethionine salts, the process for their preparation, and therapeutic compositions which contain them as active principle” (Bioresearch S.p.A., priority 1981, dated 1984)", "data": [{"assay": "physchem", "conditions": "1440 h", "protocol": "(§1) The residual SAM percentage at the times indicated was determined by the new method described hereinafter, which ensures maximum accuracy of measurements in that it enables the SAM to be totally separated from all possible degradation products. The present method for determining the SAM is based on the use of HPLC.", "units": {"DEGRADATION AT 45° C. AFTER 60 days": "%"}, "values": [{"molecule": "C[S+](CCC(N)C(=O)[O-])CC1OC(n2cnc3c(N)ncnc32)C(O)C1O", "note": "(stereo not drawn) [drawing 5, n=1]", "DEGRADATION AT 45° C. AFTER 60 days": 100}, {"molecule": "C[S+](CCC(N)C(=O)[O-])CC1OC(n2cnc3c(N)ncnc32)C(O)C1O", "note": "(stereo not drawn) [SAM.n CH3 SO3 H, n=1]", "DEGRADATION AT 45° C. AFTER 60 days": 100}]}, {"assay": "physchem", "conditions": "2880 h", "protocol": "as §1", "units": {"DEGRADATION AT 45° C. AFTER 120 days": "%"}, "values": [{"molecule": "C[S+](CCC(N)C(=O)[O-])CC1OC(n2cnc3c(N)ncnc32)C(O)C1O", "note": "(stereo not drawn) [drawing 5, n=1]", "DEGRADATION AT 45° C. AFTER 120 days": 100}, {"molecule": "C[S+](CCC(N)C(=O)[O-])CC1OC(n2cnc3c(N)ncnc32)C(O)C1O", "note": "(stereo not drawn) [SAM.n CH3 SO3 H, n=1]", "DEGRADATION AT 45° C. AFTER 120 days": 100}, {"molecule": "C[S+](CCC(N)C(=O)[O-])CC1OC(n2cnc3c(N)ncnc32)C(O)C1O", "note": "(stereo not drawn) [drawing 5, n=2]", "DEGRADATION AT 45° C. AFTER 120 days": 100}, {"molecule": "C[S+](CCC(N)C(=O)[O-])CC1OC(n2cnc3c(N)ncnc32)C(O)C1O", "note": "(stereo not drawn) [SAM.n CH3 SO3 H, n=2]", "DEGRADATION AT 45° C. AFTER 120 days": 100}]}, {"assay": "physchem", "conditions": "4320 h", "protocol": "as §1", "units": {"DEGRADATION AT 45° C. AFTER 180 days": "%"}, "values": [{"molecule": "C[S+](CCC(N)C(=O)[O-])CC1OC(n2cnc3c(N)ncnc32)C(O)C1O", "note": "(stereo not drawn) [drawing 5, n=1]", "DEGRADATION AT 45° C. AFTER 180 days": 100}, {"molecule": "C[S+](CCC(N)C(=O)[O-])CC1OC(n2cnc3c(N)ncnc32)C(O)C1O", "note": "(stereo not drawn) [SAM.n CH3 SO3 H, n=1]", "DEGRADATION AT 45° C. AFTER 180 days": 100}, {"molecule": "C[S+](CCC(N)C(=O)[O-])CC1OC(n2cnc3c(N)ncnc32)C(O)C1O", "note": "(stereo not drawn) [drawing 5, n=2]", "DEGRADATION AT 45° C. AFTER 180 days": 100}, {"molecule": "C[S+](CCC(N)C(=O)[O-])CC1OC(n2cnc3c(N)ncnc32)C(O)C1O", "note": "(stereo not drawn) [SAM.n CH3 SO3 H, n=2]", "DEGRADATION AT 45° C. AFTER 180 days": 100}]}, {"assay": "physchem", "conditions": "5760 h", "protocol": "as §1", "units": {"DEGRADATION AT 45° C. AFTER 240 days": "%"}, "values": [{"molecule": "C[S+](CCC(N)C(=O)[O-])CC1OC(n2cnc3c(N)ncnc32)C(O)C1O", "note": "(stereo not drawn) [SAM.n CH3 SO3 H, n=3]", "DEGRADATION AT 45° C. AFTER 240 days": 100}, {"molecule": "C[S+](CCC(N)C(=O)[O-])CC1OC(n2cnc3c(N)ncnc32)C(O)C1O", "note": "(stereo not drawn) [drawing 5, n=1]", "DEGRADATION AT 45° C. AFTER 240 days": 100}, {"molecule": "C[S+](CCC(N)C(=O)[O-])CC1OC(n2cnc3c(N)ncnc32)C(O)C1O", "note": "(stereo not drawn) [SAM.n CH3 SO3 H, n=1]", "DEGRADATION AT 45° C. AFTER 240 days": 100}, {"molecule": "C[S+](CCC(N)C(=O)[O-])CC1OC(n2cnc3c(N)ncnc32)C(O)C1O", "note": "(stereo not drawn) [drawing 5, n=2]", "DEGRADATION AT 45° C. AFTER 240 days": 100}, {"molecule": "C[S+](CCC(N)C(=O)[O-])CC1OC(n2cnc3c(N)ncnc32)C(O)C1O", "note": "(stereo not drawn) [SAM.n CH3 SO3 H, n=2]", "DEGRADATION AT 45° C. AFTER 240 days": 100}, {"molecule": "C[S+](CCC(N)C(=O)[O-])CC1OC(n2cnc3c(N)ncnc32)C(O)C1O", "note": "(stereo not drawn) [drawing 5, n=3]", "DEGRADATION AT 45° C. AFTER 240 days": 100}]}, {"assay": "physchem", "conditions": "8640 h", "protocol": "as §1", "units": {"DEGRADATION AT 45° C. AFTER 360 days": "%"}, "values": [{"molecule": "C[S+](CCC(N)C(=O)[O-])CC1OC(n2cnc3c(N)ncnc32)C(O)C1O", "note": "(stereo not drawn) [SAM.n CH3 SO3 H, n=3]", "DEGRADATION AT 45° C. AFTER 360 days": 100}, {"molecule": "C[S+](CCC(N)C(=O)[O-])CC1OC(n2cnc3c(N)ncnc32)C(O)C1O", "note": "(stereo not drawn) [drawing 5, n=1]", "DEGRADATION AT 45° C. AFTER 360 days": 100}, {"molecule": "C[S+](CCC(N)C(=O)[O-])CC1OC(n2cnc3c(N)ncnc32)C(O)C1O", "note": "(stereo not drawn) [SAM.n CH3 SO3 H, n=1]", "DEGRADATION AT 45° C. AFTER 360 days": 100}, {"molecule": "C[S+](CCC(N)C(=O)[O-])CC1OC(n2cnc3c(N)ncnc32)C(O)C1O", "note": "(stereo not drawn) [drawing 5, n=2]", "DEGRADATION AT 45° C. AFTER 360 days": 100}, {"molecule": "C[S+](CCC(N)C(=O)[O-])CC1OC(n2cnc3c(N)ncnc32)C(O)C1O", "note": "(stereo not drawn) [SAM.n CH3 SO3 H, n=2]", "DEGRADATION AT 45° C. AFTER 360 days": 100}, {"molecule": "C[S+](CCC(N)C(=O)[O-])CC1OC(n2cnc3c(N)ncnc32)C(O)C1O", "note": "(stereo not drawn) [drawing 5, n=3]", "DEGRADATION AT 45° C. AFTER 360 days": 100}]}, {"assay": "physchem", "conditions": "DEGRADATION AT 45° C. AFTER 360 DAYS", "protocol": "as §1", "units": {"degraded at 8640 h": "%"}, "values": [{"molecule": "C[S+](CCC(N)C(=O)[O-])CC1OC(n2cnc3c(N)ncnc32)C(O)C1O", "note": "(stereo not drawn) [SAM.5CH3 SO3 H]", "degraded at 8640 h": 5}]}, {"assay": "Residual moisture of the lyophilised salt", "format": "physicochemical", "conditions": "Tables 1 to 4", "units": {"residual moisture": "%"}, "values": [{"molecule": "C[S+](CCC(N)C(=O)[O-])CC1OC(n2cnc3c(N)ncnc32)C(O)C1O", "note": "(stereo not drawn) [drawing 6, n=2]", "residual moisture": 1.5}, {"molecule": "C[S+](CCC(N)C(=O)[O-])CC1OC(n2cnc3c(N)ncnc32)C(O)C1O", "note": "(stereo not drawn) [SAM.1.5 H2 SO4.n CH3 SO3 H, n=1]", "residual moisture": 1}, {"molecule": "C[S+](CCC(N)C(=O)[O-])CC1OC(n2cnc3c(N)ncnc32)C(O)C1O", "note": "(stereo not drawn) [drawing 5, n=4]", "residual moisture": 1}, {"molecule": "C[S+](CCC(N)C(=O)[O-])CC1OC(n2cnc3c(N)ncnc32)C(O)C1O", "note": "(stereo not drawn) [SAM.1.5 H2 SO4.n CH3 SO3 H, n=2]", "residual moisture": 1.5}, {"molecule": "C[S+](CCC(N)C(=O)[O-])CC1OC(n2cnc3c(N)ncnc32)C(O)C1O", "note": "(stereo not drawn) [drawing 6, n=1]", "residual moisture": 1}, {"molecule": "C[S+](CCC(N)C(=O)[O-])CC1OC(n2cnc3c(N)ncnc32)C(O)C1O", "note": "(stereo not drawn) [SAM.1.5 H2 SO4.n CH3 SO3 H, n=3]", "residual moisture": 2}, {"molecule": "C[S+](CCC(N)C(=O)[O-])CC1OC(n2cnc3c(N)ncnc32)C(O)C1O", "note": "(stereo not drawn) [SAM.n CH3 SO3 H, n=6]", "residual moisture": 2}, {"molecule": "C[S+](CCC(N)C(=O)[O-])CC1OC(n2cnc3c(N)ncnc32)C(O)C1O", "note": "(stereo not drawn) [SAM.n CH3 SO3 H, n=4]", "residual moisture": 1}, {"molecule": "C[S+](CCC(N)C(=O)[O-])CC1OC(n2cnc3c(N)ncnc32)C(O)C1O", "note": "(stereo not drawn) [SAM.n CH3 SO3 H, n=3]", "residual moisture": 0.8}, {"molecule": "C[S+](CCC(N)C(=O)[O-])CC1OC(n2cnc3c(N)ncnc32)C(O)C1O", "note": "(stereo not drawn) [drawing 5, n=6]", "residual moisture": 2}, {"molecule": "C[S+](CCC(N)C(=O)[O-])CC1OC(n2cnc3c(N)ncnc32)C(O)C1O", "note": "(stereo not drawn) [drawing 5, n=1]", "residual moisture": 0.2}, {"molecule": "C[S+](CCC(N)C(=O)[O-])CC1OC(n2cnc3c(N)ncnc32)C(O)C1O", "note": "(stereo not drawn) [SAM.n CH3 SO3 H, n=1]", "residual moisture": 0.2}, {"molecule": "C[S+](CCC(N)C(=O)[O-])CC1OC(n2cnc3c(N)ncnc32)C(O)C1O", "note": "(stereo not drawn) [drawing 6, n=3]", "residual moisture": 2}, {"molecule": "C[S+](CCC(N)C(=O)[O-])CC1OC(n2cnc3c(N)ncnc32)C(O)C1O", "note": "(stereo not drawn) [drawing 5, n=2]", "residual moisture": 0.5}, {"molecule": "C[S+](CCC(N)C(=O)[O-])CC1OC(n2cnc3c(N)ncnc32)C(O)C1O", "note": "(stereo not drawn) [SAM.n CH3 SO3 H, n=2]", "residual moisture": 0.5}, {"molecule": "C[S+](CCC(N)C(=O)[O-])CC1OC(n2cnc3c(N)ncnc32)C(O)C1O", "note": "(stereo not drawn) [drawing 5, n=3]", "residual moisture": 0.8}]}, {"assay": "Residual moisture of the lyophilised salt", "format": "physicochemical", "conditions": "Tables 1 to 4; listed as SAM.n CH3 SO3 H, n=5", "units": {"residual moisture": "%"}, "values": [{"molecule": "C[S+](CCC(N)C(=O)[O-])CC1OC(n2cnc3c(N)ncnc32)C(O)C1O", "note": "(stereo not drawn) [SAM.5CH3 SO3 H]", "residual moisture": 1.5}]}, {"assay": "Residual moisture of the lyophilised salt", "format": "physicochemical", "conditions": "Tables 1 to 4; n=5", "units": {"residual moisture": "%"}, "values": [{"molecule": "C[S+](CCC(N)C(=O)[O-])CC1OC(n2cnc3c(N)ncnc32)C(O)C1O", "note": "(stereo not drawn) [SAM.5CH3 --C6 H4 --SO3 H]", "residual moisture": 1.5}]}, {"assay": "Residual moisture of the lyophilised salt", "format": "physicochemical", "conditions": "with or without lyophilisation support (Tables 5, 6)", "units": {"residual moisture": "%"}, "values": [{"molecule": "C[S+](CCC(N)C(=O)[O-])CC1OC(n2cnc3c(N)ncnc32)C(O)C1O", "note": "(stereo not drawn) [SAM.5CH3 SO3 H]", "residual moisture": 1.5}]}, {"assay": "Wide pharmacological screening trial", "conditions": "independent of the anion bonded to the SAM", "values": [{"molecule": "C[S+](CCC(N)C(=O)[O-])CC1OC(n2cnc3c(N)ncnc32)C(O)C1O", "note": "(stereo not drawn) [SAM.5CH3 SO3 H]", "activity and toxicity characteristics": "highly interesting activity and toxicity characteristics"}]}, {"assay": "not given", "conditions": "prior art salts; cited from earlier work", "values": [{"molecule": "C[S+](CCC(N)C(=O)[O-])CC1OC(n2cnc3c(N)ncnc32)C(O)C1O", "note": "(stereo not drawn) [disulphatediparatoluene sulphonate, reference compound]", "temperature up to which the salt is stable": "up to 45 °C"}]}, {"assay": "not given", "conditions": "prior art salts; listed as triparatoluene sulphonate; cited from earlier work", "values": [{"molecule": "C[S+](CCC(N)C(=O)[O-])CC1OC(n2cnc3c(N)ncnc32)C(O)C1O", "note": "(stereo not drawn) [drawing 5, n=3]", "temperature up to which the salt is stable": "up to 25 °C"}]}]}
